# From patent publication US9856511B2, “Protease deubiquitinating inhibitor screening” (priority 2011, dated 2018)
# Tests used:
# [1] = tested on: Lewis Lung Carcinoma (LLC); assay: Lewis Lung Carcinoma (LLC) syngenic tumors in C57BL/6J mice; type: in vivo; conditions: 5 mg/kg i.p., day on/2 day off schedule; p=<0.01
# Method: In order to investigate the effect of b-AP15 on tumor growth in vivo, the compound was administered to mice bearing either a human tumor or mouse xenografts. FaDu head and neck carcinoma were chosen as a SCID mouse xenograft both as a model for a p53mut tumor and since this model is suitable for studies using circulating cell death biomarkers (30). Significant inhibition of FaDu tumor growth was observed following daily treatment with b-AP15 (treated/control tumor volume, T/C=0.4, p=<0.001). Similarly b-AP15 (day on/2 day off schedule) inhibited tumor growth in C57BL/6J mice bearing lung carcinomas (T/C=0.16, p=<0.01). […] To examine whether b-AP15 promotes tumor cell death in vivo, plasma levels of cytokeratin-18 (CK18) were analyzed. […] To investigate the ability of b-AP15 to inhibit proteasome deubiquitination in vivo, accumulation of poly-ubiquitin conjugates was analyzed by means of antibodies specific for K48 linked polyubiquitin chains. Histological analysis of treated tumors confirmed the accumulation of poly-ubiquitin conjugates. […]
# Animal experiments were conducted in full accordance with Swedish governmental statutory regulations on animal welfare under permission from local ethical committees. […] All mice were monitored and weighed daily. […] After injection, tumor growth was measured daily with calipers and the tumor volume calculated by the formula L=W^2=0.44. […]
# [2] = Animal weight and side effects in treated tumor-bearing mice; type: in vivo
# Method: In order to investigate the effect of b-AP15 on tumor growth in vivo, the compound was administered to mice bearing either a human tumor or mouse xenografts. FaDu head and neck carcinoma were chosen as a SCID mouse xenograft both as a model for a p53mut tumor and since this model is suitable for studies using circulating cell death biomarkers (30). Significant inhibition of FaDu tumor growth was observed following daily treatment with b-AP15 (treated/control tumor volume, T/C=0.4, p=<0.001). Similarly b-AP15 (day on/2 day off schedule) inhibited tumor growth in C57BL/6J mice bearing lung carcinomas (T/C=0.16, p=<0.01). […] To examine whether b-AP15 promotes tumor cell death in vivo, plasma levels of cytokeratin-18 (CK18) were analyzed. […] To investigate the ability of b-AP15 to inhibit proteasome deubiquitination in vivo, accumulation of poly-ubiquitin conjugates was analyzed by means of antibodies specific for K48 linked polyubiquitin chains. Histological analysis of treated tumors confirmed the accumulation of poly-ubiquitin conjugates.
# Animal experiments were conducted in full accordance with Swedish governmental statutory regulations on animal welfare under permission from local ethical committees. Animals were housed at a max of five per cage and provided with sterile water and food ad libitum. All mice were monitored and weighed daily. For the head and neck carcinoma model a 100-μl cell suspension containing 1×10^6 FaDu cells was injected subcutaneously into the right rear flank of the animals. After injection, tumor growth was measured daily with calipers and the tumor volume calculated by the formula […]. When tumors had grown to a size of approximately 200 mm^3 (Day 0) mice were randomized to receive either vehicle (n=10) or b-AP15 5 mg/kg^−1 by subcutaneous injection s.c. (n=15) daily. For the colon carcinoma model, 2.5×10^6 HCT-116 colon carcinoma cells stably transfected with Bcl-2 (HCT-116^Bcl-2+) were inoculated subcutaneously into the right flank of nude mice. One day after inoculation mice were treated with 5 mg/kg^−1 by intra peritoneal injection (i.p.). Animals were inspected daily to establish the tumor onset and growth. For the lung carcinoma model a 100-μl cell suspension containing 2×10^5 Lewis Lung Carcinoma (LLC) cells was injected subcutaneously into the right rear flank of C57/B6 mice. When tumors had grown to a size of approximately 50 mm^3 (Day 0) mice were randomized to receive either vehicle (n=4) or b-AP15 5 mg/kg^−1 i.p. (n=4) with a treatment cycle consisting of two days treatment followed by two days no treatment (2 days on/2 days off) for two weeks. For the breast carcinoma model a 100-μl cell suspension containing 1×10^5 […] was injected subcutaneously into the right mammary fat pad of BALB/c mice. When tumors had grown to a size approximately 25 mm^3 (Day 0), mice were randomized to receive either vehicle (n=5) or b-AP15 2.5 mg/kg^−1 i.p. (n=5) with a treatment cycle consisting of one days treatment followed by three days no treatment (1 day on/3 days off) for 3 weeks. In the AML studies female C57BL/6J mice were injected i.v. in the tail vein with 5×10^5 C1498 AML cells. After eight days mice were randomized to receive either b-AP15 5 mg/kg^−1 (n=10) or vehicle (n=10) i.p. for 7 days (day +8 till +14). Nineteen days after malignant cell injection all of the mice were killed and histopathological manifestations of liver, ovary (target organs for this model of tumor) were evaluated and compared between groups. […]
structure (smiles),measurement,setting,value
C=CC(=O)N1C/C(=C\c2ccc([N+](=O)[O-])cc2)C(=O)/C(=C/c2ccc([N+](=O)[O-])cc2)C1 [b-AP15],"treated/control tumor volume, T/C",[1],0.16
same,difference in weight at start and endpoint between control and treated animals,[2]; 4T1,+5.8%
same,difference in weight at start and endpoint between control and treated animals,[2]; FaDu xenograft,−1.3%
same,difference in weight at start and endpoint between control and treated animals,[2]; LLC,+2.1%
same,adverse side effects,[2]; b-AP15 treated group,No adverse side effects were observed
same,average weight loss at the conclusion of the study,[2]; b-AP15 treated group,< 5%
